Where two headings read alike, the source gives them in different places.
How the values were obtained:
MNT‐1 cells [1] = assay: Melanin content in MNT‐1 cells after 6 days of treatment; format: cell-based, human
Description: MNT‐1 cells were exposed to varying concentrations of test compounds for 6 days. After treatment, cells were harvested and lysed in RIPA buffer on ice for 20 min. Lysates were centrifuged at 13 000 rpm for 10 min at 4°C, and the supernatant was collected. Protein concentration was quantified using a BCA Protein Assay Kit (Thermo Fisher). To extract melanin, cell pellets were dissolved in 1 M NaOH and incubated for 3 h at 80°C. Absorbance at 405 nm was measured using a Synergy H1 Hybrid Reader. Melanin content was quantified by referencing a standard curve of synthetic melanin (maximum concentration 50 μg/mL, 2‐fold gradient dilution, 8 concentration points). Melanin content was normalized to protein concentration (μg melanin/mg protein), and IC50 values were calculated using GraphPad software.
FIGURE 3 Inhibition of melanin production in MNT‐1 by KT‐939, Thiamidol, and 4‐butylresorcinol. MNT‐1 cells were treated with different concentrations of KT‐939, Thiamidol, or 4‐butylresorcinol for 6 days. The melanin content was quantified based on the standard curve of melanin, and the melanin content per mg of protein was utilized for IC50 calculations with GraphPad software.

MNT‐1 cells [2] = assay: Wash‐out assay, melanin content in MNT‐1 cells after drug withdrawal; format: cell-based, human; conditions: for inhibition at 1 µM / inhibition at 10 µM: Homo sapiens, read-out: melanin inhibition rate after washout; for inhibition at 1 µM: MNT-1, 1 μM for 6 days; for inhibition at 10 µM: MNT-1, 10 μM for 6 days
Description: MNT‐1 cells were treated with 1 or 10 μM KT‐939 for six days, after which the drug‐containing medium was replaced with standard culture medium. Melanin content was measured at various time points.
FIGURE 4 The inhibitory effect of KT‐939 on melanin production is reversible. MNT‐1 cells were exposed to 1 or 10 μM of KT‐939 for 6 days, followed by drug washout and replacement with normal medium. Melanin content was measured at specified time points. Data represent the mean ± standard deviation of three independent experiments.

[3] = DPPH radical scavenging assay
Description: A DPPH radical scavenging assay kit (Solarbio) was used to assess antioxidant activity, following the manufacturer's instructions. Briefly, 10 μL of each test compound at the indicated concentrations was mixed with 190 μL DPPH solution in a 96‐well plate. Control wells (10 μL compound + 190 μL ethanol) and blank wells (10 μL solvent + 190 μL ethanol) were included. The reaction mixtures were gently shaken and incubated for 30 min at room temperature in the dark. Absorbance was measured at 515 nm using a Synergy H1 Hybrid Reader.
A DPPH radical scavenging assay was conducted to evaluate the antioxidant activity of KT‐939 at various concentrations, with a maximum concentration of 10 mM in a 5‐fold dilution series. Data represent mean ± standard deviation of three independent experiments.

[4] = system: NRF2/ARE signaling pathway; assay: NRF2/ARE‐luciferase reporter assay in HEK293T cells; format: cell-based, human; conditions: 10 µM, 48 h, relative to DMSO
Description: The NRF2‐responsive firefly luciferase reporter plasmid (pGL4.27_ARE NRF2‐SPE) and Renilla luciferase control plasmid (pRL‐TK) were co‐transfected into HEK293T cells using Lipofectamine 2000. After 24 h, transfected cells were seeded into 96‐well plates and incubated overnight. Test compounds (10 μM) were added, and cells were incubated for an additional 48 h. Luciferase activities were measured using the Dual‐Lumi Luciferase Reporter Assay Kit (Beyotime Biotechnology), following the manufacturer's instructions.
FIGURE 6 KT‐939 activates the ARE/NRF2 signaling pathway. HEK293T cells transfected with an NRF2‐responsive firefly luciferase reporter were treated with 10 µM of KT‐939, hydroquinone (Hq), 377, or 4‐butylresorcinol for 48 h. Luminescence signals were normalized to renilla and expressed relative to DMSO control. *** p < 0.001 vs DMSO.

[5] = system: LPS‐stimulated RAW264.7 cells; assay: RT‐qPCR of inflammatory cytokines in LPS‐stimulated RAW264.7 cells; format: cell-based, mouse; conditions: 3, 10 or 30 μM pretreatment 2 h, then 100 ng/mL LPS 16 h, vs LPS group
Description: RAW264.7 cells were treated with KT‐939 at concentrations of 3, 10, or 30 μM and incubated for 2 h. After pretreatment, cells were stimulated with 100 ng/mL LPS for an additional 16 h. Total RNA was extracted using the MiniBEST RNA Extraction Kit (Takara Bio) per the manufacturer's protocol. Reverse transcription and SYBR Green‐based qPCR were performed with ABScript II One Step RT‐qPCR Kit (Abclonal). RT‐PCR primer sequences were as follows: (Mouse) TNF‐α sense: 5‐[…]‐3, antisense: 5‐[…]‐3; (Mouse) IL‐6 sense: 5‐[…]‐3, antisense: 5‐[…]‐3; (Mouse) IL‐1α sense: 5‐[…]‐3, antisense: 5‐[…]‐3; (Mouse) GAPDH sense: 5‐[…]‐3, antisense: 5‐[…]‐3; Expression of target gene mRNA was normalized to GAPDH, and results were analyzed using GraphPad software.
RAW264.7 cells were pre‐treated with different concentrations of KT‐939, followed by the addition of 100 ng/mL LPS for 16 h. mRNA levels of TNF‐α, IL‐6, and IL‐1α were quantified by RT‐PCR and compared to the LPS‐induced group (*p < 0.05, **p < 0.01, ***p < 0.001).

HaCaT cells = assay: Cell viability, HaCaT; format: cell-based, human; conditions: 72 h, up to 50 μM
Description: B16‐F10, MNT‐1, and HaCaT cells (5000 cells/well) were seeded into 96‐well plates and incubated overnight. Culture medium (50 μL) containing varying concentrations of KT‐939 was added to each well, and cells were incubated for 72 h. Cell viability was assessed using the Cell Viability Assay Kit (Vazyme Biotech), following the manufacturer's instructions. Luminescence was measured using a Synergy H1 Hybrid Reader. DMSO‐treated cells served as the control, and survival rates were calculated and analyzed with GraphPad software.
B16‐F10, MNT‐1, and HaCaT cells were incubated with different concentrations of KT‐939 for 72 h. Cell viability was assessed and normalized to the DMSO‐treated control group.

CC1(C(=O)Nc2nc(-c3ccc(O)cc3O)cs2)COC1 [KT‐939, N‐(4‐(2,4‐Dihydroxyphenyl) Thiazol‐2‐yl)‐3‐Methyloxetane‐3‐Carboxamide]
IC50 (MNT‐1 cells [1]; Homo sapiens, 144 h, MNT‐1, 6 days, read-out: IC50 of melanin production): 0.36 µM | inhibition at 0.37 µM (MNT‐1 cells [1]; Homo sapiens, MNT-1, 144 h, 0.37 μM, 6 days, read-out: inhibition of melanin production): 48.4% | inhibition at 1.1 µM (MNT‐1 cells [1]; Homo sapiens, MNT-1, 144 h, 1.1 μM, 6 days, read-out: inhibition of melanin production): 63.3% | inhibition at 3.3 µM (MNT‐1 cells [1]; Homo sapiens, MNT-1, 144 h, 3.3 μM, 6 days, read-out: inhibition of melanin production): 83.9% | inhibition at 10 µM (MNT‐1 cells [1]; Homo sapiens, MNT-1, 144 h, 10 μM, 6 days, read-out: inhibition of melanin production): 86.7% | fold greater melanin inhibitory potency compared to Thiamidol (MNT‐1 cells [1]; ratio of IC50, vs Thiamidol): approximately 3.6 fold | melanin inhibition after washout (MNT‐1 cells [2]; 1 μM for 6 days, after seven days): returning to baseline | melanin content after washout (MNT‐1 cells [2]; 10 μM for 6 days, after 11 days of drug withdrawal): fully returned to normal levels | inhibition at 1 µM (MNT‐1 cells [2]; day 3 after washout): 38% | inhibition at 1 µM (MNT‐1 cells [2]; day 5 after washout): 28.3% | inhibition at 10 µM (MNT‐1 cells [2]; day 3 after washout): 66.6% | inhibition at 10 µM (MNT‐1 cells [2]; day 5 after washout): 52.7% | inhibition at 10 µM (MNT‐1 cells [2]; day 7 after washout): 21.3% | inhibition at 10 µM (MNT‐1 cells [2]; day 9 after washout): 20% | DPPH clearance rate ([3]; 0.4 mM): 8.9% | DPPH clearance rate ([3]; 2 mM): 20.2% | DPPH clearance rate ([3]; 10 mM): 43.2% | DPPH clearance rate ([3]; as summed up in the discussion, concentration not given): exceeding 40% | NRF2 signaling pathway activation (luciferase reporter) [4]: significantly enhanced the NRF2 signaling pathway | IL‐1α mRNA level [5]: dose‐dependent decrease | IL‐6 mRNA level [5]: dose‐dependent decrease | TNF‐α mRNA level [5]: dose‐dependent decrease | cytotoxicity (cell viability) (HaCaT cells): no significant cytotoxicity
